Test results published in paper PMC7939384, “In crystallo screening for proline analog inhibitors of the proline cycle enzyme PYCR1” (The Journal of Biological Chemistry, 2021).
Several values for one entry are separate records, joined by “and”; a condition that tells them apart may be missing. Equal entries are not always repeated.

Key:
human PYCR1 = target: T1, human PYCR1 (Homo sapiens, UniProt P32322); test: biochemical; details: for Ki: competitive with P5C, NADH fixed 175 μM
T1 sequence (P32322 1-300): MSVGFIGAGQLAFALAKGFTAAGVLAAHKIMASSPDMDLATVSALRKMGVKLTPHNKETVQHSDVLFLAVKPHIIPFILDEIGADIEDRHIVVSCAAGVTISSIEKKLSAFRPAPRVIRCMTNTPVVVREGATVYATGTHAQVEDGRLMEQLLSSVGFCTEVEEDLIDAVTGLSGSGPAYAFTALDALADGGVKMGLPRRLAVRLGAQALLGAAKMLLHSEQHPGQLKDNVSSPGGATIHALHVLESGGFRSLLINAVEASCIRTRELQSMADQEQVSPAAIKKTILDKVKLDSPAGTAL
Experimental: Over two dozen proline analogs (Fig. 2) were screened using electron density from X-ray crystallography as the readout for binding to human PYCR1. […] Because the compounds bind in the P5C/proline site, the mechanism of inhibition was assumed to be competitive with P5C. Therefore, steady-state kinetic measurements were performed with L-P5C as the variable substrate (0-1000 μM) and NADH fixed (175 μM) (Fig. 3). For each compound, the data were fit globally to a competitive inhibition model (Equation 1) to obtain an inhibition constant, Ki.
B, THFA. C, CPC. D, T4C. E, T2C. F, NFLP. The data were measured in 50 mM Tris (pH 7.5) with 1 mM EDTA disodium salt while holding NADH fixed at 175 μM and varying D,L-P5C (0–2000 μM). The concentration of the substrate L-P5C was considered to be half the total D,L-P5C concentration added to the assays. Curves represent global fits of the data to a competitive inhibition model showing initial velocity in units of µM [NAD^+] s^−1 as a function of L-P5C concentration (µM).
A C-terminal truncation variant of human PYCR1, which includes residues 1–300 of the full-length 319-residue enzyme, was used for kinetics and X-ray crystallography ([18]). PYCR1 was overexpressed in Escherichia coli BL21 (DE3) competent cells and purified using methods similar to those previously reported ([18]). Harvested cells were lysed via sonication in a mixture containing DNase I, lysozyme, and 0.2 mM phenylmethylsulfonyl fluoride protease inhibitor, and then the insoluble material was removed via centrifugation at 16,000 rpm for 1 h at 4°C. The resulting lysate was purified by gravity-flow chromatography on a column containing Ni^2+–nitrilotriacetic acid resin (Qiagen) pre-equilibrated with binding buffer consisting of 50 mM HEPES, 300 mM NaCl, 10 mM imidazole, and 5% (w/v) glycerol at pH 7.8 (buffer A). The column was washed with buffer A supplemented with 30 mM imidazole, and then the bound protein was eluted with buffer A supplemented with 300 mM imidazole. Elution fractions containing PYCR1 were identified by SDS-PAGE and prepared for further purification by size-exclusion chromatography by dialyzing into 300 mM NaCl, 2% (w/v) glycerol, and 50 mM HEPES at pH 7.5. Size-exclusion chromatography was performed on a HiLoad 16/600 Superdex 200 column equilibrated with 50 mM HEPES, pH 7.8, 300 mM NaCl, and 5% (w/v) glycerol. Purified PYCR1 was concentrated to 8 mg/ml and stored at 4°C for subsequent crystallization trials.
Kinetic measurements were performed in a BioTek Epoch 2 microplate spectrophotometer using Corning 96-well UV-transparent microplates. Activity assays were performed by monitoring the consumption of NADH at 340 nm (ε340 = 6220 M^−1 cm^−1) using P5C as the substrate. D,L-P5C was synthesized as described previously ([45]), quantified using o-aminobenzaldehyde (o-AB), and stored in 1 M HCl at 4°C. Neutralization of D,L-P5C to pH 7.5 was performed immediately prior to assays using 1 M Tris (pH 7.5) and 6 M NaOH. The concentration of the substrate L-P5C was assumed to be half the total D,L-P5C concentration added to the assays.
The following microplate protocol was employed. Substrate mixtures containing P5C, NADH, EDTA, and Tris buffer were prepared in a deep well block for each P5C concentration. Mixtures containing enzyme and various concentrations of the inhibitor were prepared in microcentrifuge tubes and incubated on ice in buffer containing 50 mM HEPES pH 7.8, 300 mM NaCl, and 5% (w/v) glycerol. The final concentration of PYCR1 in the assay was 6.25 nM. Twenty μl of the enzyme-analog mixture was added to microplate wells using a single-channel pipette, and then the reaction was initiated by addition of 180 μl of the substrate mixtures using a multi-channel pipettor. The reaction traces were followed for 35 min.

[1] = target: T2, E. coli PutA PRODH domain (EcPutA86-630) (Escherichia coli, UniProt P09546); test: PRODH activity assay (o-AB/P5C adduct at 443 nm); format: biochemical; details: 100 mM NFLP as substrate; 0, 1, 5 or 10 mM NFLP with 100 mM L-proline
T2 construct: Proline Utilization A from E. coli (EcPutA86-630)
T2 sequence (P09546 86-630): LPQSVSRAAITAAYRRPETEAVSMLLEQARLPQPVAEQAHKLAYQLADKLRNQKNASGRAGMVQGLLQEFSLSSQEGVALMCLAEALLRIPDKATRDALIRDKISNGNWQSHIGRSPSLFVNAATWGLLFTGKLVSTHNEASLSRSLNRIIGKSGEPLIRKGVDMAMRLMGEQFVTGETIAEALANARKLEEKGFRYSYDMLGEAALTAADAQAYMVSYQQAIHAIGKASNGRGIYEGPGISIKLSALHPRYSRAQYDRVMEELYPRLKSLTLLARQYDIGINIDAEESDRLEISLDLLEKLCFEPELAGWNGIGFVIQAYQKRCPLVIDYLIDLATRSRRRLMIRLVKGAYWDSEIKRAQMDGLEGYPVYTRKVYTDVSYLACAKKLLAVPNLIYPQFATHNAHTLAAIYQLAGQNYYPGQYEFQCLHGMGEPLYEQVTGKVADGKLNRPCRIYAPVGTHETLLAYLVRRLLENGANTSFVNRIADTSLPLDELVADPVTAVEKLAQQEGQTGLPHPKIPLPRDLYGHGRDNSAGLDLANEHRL
Experimental: The rates have been normalized to the rate obtained in the absence of NFLP.
Assays were performed to test whether NFLP is a substrate or inhibitor of PRODH. Because of challenges in obtaining active recombinant human PRODH, which is an inner mitochondrial membrane protein, these experiments used the PRODH domain of the bifunctional proline catabolic enzyme, Proline Utilization A from E. coli (EcPutA86-630). The active sites of human and bacterial PutA PRODH domains are very highly conserved. For example, all residues that contact proline analog inhibitors in crystal structures of bacterial PRODHs are identically present in human PRODH, as we described previously ([6]). Thus, bacterial PRODHs are considered to be good surrogates for identifying inhibitors of human PRODH. Indeed, the inhibitors discovered using bacterial PRODHs show on-target activity in cancer cells and animal models of cancer ([5], [21]).
PRODH activity was measured in a BioTek Epoch 2 microplate spectrophotometer by monitoring P5C as the adduct formed by the reaction with o-AB at 443 nm. The assays were conducted at 25°C in 20 mM MOPS, pH 7.5, and 10 mM MgCl2 with 4 mM o-AB, 0.15 mM menadione (electron acceptor to re-oxidize the FAD), and 1.3 μM of EcPutA86-630. The enzyme mixture contained EcPutA86-630, o-AB, menadione, and buffer. […]

## O=CN1CCC[C@H]1C(=O)O [NFLP, N-formyl L-proline]
Human PYCR1; Ki (estimated), rounded values
  Ki: 100 µM and ~100 µM
Human PYCR1; Ki, 50 mM Tris pH 7.5, global fit
  Ki: 99 ± 7.7 µM
Human PYCR1; NFLP relative to proline
  binding free energy equivalent of the affinity increase: ~1.7 kcal/mol
  increase in affinity by addition of the formyl group to proline: 17 fold
Human PYCR1; kcat for L-P5C at fixed NADH 175 μM, global fit of the data set with this analog
  kcat: 52 ± 2 s⁻¹
[1]
  substrate or inhibitor of bacterial PRODH (in words): neither a substrate nor an inhibitor
